Assays:
[1] = system: stifle joints; test: Animal model of tolerability with MMP inhibitors, histological evaluation of stifle joints; assay type: in vivo; details: rats, intraperitoneal, 10 consecutive days, daily doses of 150 mg/kg or less
Source text: Although MMPs have been recognized as drug targets for at least 20 years, and potent MMP inhibitors described by formula (A) have been disclosed since 1986 or before (e.g., see J. P. Dickens et al., U.S. Pat. No. 4,599,361), no drug of this type has arrived at the market yet. This is not because of questions about the therapeutic potential of MMP inhibitors, but because of problems of “peptide-based hydroxamates”, such as aqueous solubility, metabolic stability, and other desirable properties, oral bioavailability in particular (e.g., J. R. Porter, reference above; J. Hodgson, “Remodelling MMPIs”, Biotechnology 13:554-557, 1995). For example, it is well known that most “peptide-based hydroxamates” of general formula (A) are rapidly glucuronidated, oxidized to the carboxylic acid, and excreted in the bile (e.g., see J. Singh et al., Bioorg. Med. Chem. Lett. 5:337-342, 1995, and other references above). Finally, another type of problem of the known inhibitors described by general formula (A) may be one of tolerability. […] We have extended these observations by developing an animal model of tolerability with MMP inhibitors (S. Castellino et al., unpublished), involving intraperitoneal administration of the latter in rats for 10 consecutive days, and histological evaluation of stifle joints at the end of treatment. […]

[2] = clinic; cited from earlier work

Structure (SMILES) | Histological findings in stifle joints [1] | Tolerability in humans [2]
CNC(=O)[C@@H](NC(=O)[C@@H](CC(=O)NO)CC(C)C)C(C)(C)C [Ro31-9790] | hypertrophic fibrosis of stifle ligaments, interstitial hypertrophic fibrosis of skeletal muscles, hypertrophic fibroplasia of the periostium and synovium, and chondrosysplasia and decreased endochondrial ossification of the ephyseal plate | –
CNC(=O)[C@@H](NC(=O)[C@H](CC(C)C)[C@H](O)C(=O)NO)C(C)(C)C [marimastat] | – | muscoloskeletal problems
